Measurements reported in US20170000805A1, “FOOD SUPPLEMENTATION COMPOSITION CONTAINING ONE OR MORE VITAMIN D3 COMPOUNDS AND ONE OR MORE MAGNESIUM SALTS” (DSM IP ASSETS B.V., priority 2006, published 2017).

Columns and labels:
[1] = cited from earlier work
[2] = MgCl2 and Hy-D dosed into the rumen of fistulated cattle: urine pH, urine and blood plasma minerals; type: in vivo
Description: Four mature rumen fistulated cattle (approximately 600 kg […] in individual pens and offered 12 kg/day of good quality lucerne chaff throughout the experiment. After a 2 week adaptation to this diet the following treatments were applied daily over 2 weeks to each animal in a Latin Square Design: 1. no supplement (control) 2. […] 3. […]® 1.25% (5 mg 25-hydroxy vitamin D3) MgCl2 plus […]® 1.25 % Each treatment was dosed into the rumen through a cannula each morning during the 2 week experimental period. […] Urine pH was measured at time of collection; blood plasma was decanted after centrifugation and analyzed for calcium, magnesium, potassium, sodium and phosphorus by inductively coupled plasma atomic emission spectrophotometry. The results were analysed as a latin square design making comparisons between treatments after removal of any animal or period effects. The lucerne […] assayed for macro cations together with chloride and sulphur concentrations.

[3] = blood samples on days 7, 13 and 14
[4] = urine samples on days 12, 13 and 14

For `C=C1/C(=C\C=C2/CCC[C@]3(C)[C@@H]([C@H](C)CCCC(C)C)CC[C@@H]23)C[C@@H](O)C[C@@H]1O` [1-α-hydroxy vitamin D3], the “activity relative to 25-hydroxy vitamin D3” value [1] is given as “approximately 10 times”.
For `C=C1/C(=C\C=C2/CCC[C@]3(C)[C@@H]([C@H](C)CCCC(C)(C)O)CC[C@@H]23)C[C@@H](O)C[C@@H]1O` [1-α-, 25-dihydroxy vitamin D3], the “activity relative to 25-hydroxy vitamin D3” value [1] is listed as “approximately 10 times”.
In the case of `[Cl-].[Cl-].[Mg+2]` [Mg, magnesium chloride], the “Blood Plasma composition Ca2+” value [2, 3] is reported as 87 mg/L, the “Blood Plasma composition K+” value [2, 3] is reported as 233 mg/L and the “Blood Plasma composition Mg2+” value [2, 3] is reported as 19 mg/L. For the same molecule, the “Blood Plasma composition Na+” value [2, 3] was 2280 mg/L, the “Blood Plasma composition Phosphorus” value [2, 3] was 74 mg/L and the “Urine Composition Ca2+” value [2, 4] was 397b mg/L. The “Urine Composition K+” value [2, 4] was 6652 mg/L, the “Urine Composition Mg2+” value [2, 4] was 411 mg/L and the “Urine Composition Na+” value [2, 4] was 444 mg/L. For the same molecule, the “Urine Composition Phosphorus” value [2, 4] was 190 mg/L and the “Urine pH” value ([2]; urine samples on days 12, 13 and 14, measured at time of collection) was 6.20b.
